Measured values: ChEMBL document CHEMBL6153030, “Design, synthesis, and biological evaluation of novel pleuromutilin derivatives with methicillin-resistant Staphylococcus aureus -targeting phenol linker groups” (Eur J Med Chem, 2025)
In brackets after ≈: the same amount, converted by molar mass. Activity calls are given as the source filed them. The calls are words filed in the database; no cut-off is given here.

Columns and labels:
Staphylococcus aureus [1] = experiment: Antibacterial activity against Staphylococcus aureus ATCC 29213 assessed as inhibition of bacterial growth incubated for 96 hrs by broth microdilution method; type: functional
[2] = test system: Staphylococcus epidermidis; experiment: Antibacterial activity against methicillin-resistant Staphylococcus epidermidis ATCC 51625 assessed as inhibition of bacterial growth incubated for 96 hrs by broth microdilution method; type: functional
Streptococcus pneumoniae = experiment: Antibacterial activity against Streptococcus pneumoniae ATCC 49619 assessed as inhibition of bacterial growth incubated for 96 hrs by broth microdilution method; type: functional
Staphylococcus aureus [3] = experiment: Antibacterial activity against methicillin-resistant Staphylococcus aureus ATCC43300 assessed as inhibition of bacterial growth incubated for 96 hrs by broth microdilution method; type: functional
Escherichia coli = experiment: Antibacterial activity against Escherichia coli ATCC 25922 assessed as inhibition of bacterial growth incubated for 96 hrs by broth microdilution method; type: functional
HepG2 = experiment: Cytotoxicity against human HepG2 cells assessed as reduction in cell survival at 250 ug/ml incubated for 6 hrs by CCK8 assay; type: toxicity, cell-based; details: hepg2, 6 h, dose 250 µg/ml
Staphylococcus aureus [4] = experiment: Bactericidal activity against methicillin-resistant Staphylococcus aureus ATCC 43300 assessed as bacterial killing at 6XMIC incubated for 96 hrs in broth followed by culturing on agar plate for 12 hrs by time-kill kinetics analysis; type: functional; details: time 108 hrs
HEK293 = experiment: Cytotoxicity against HEK293 cells assessed as reduction in cell survival upto 120 ug/ml incubated for 6 hrs by CCK8 assay; type: toxicity, cell-based; details: human, hek293, 6 h, dose < 120 µg/ml
[5] = target: T1, 70S ribosome (Staphylococcus aureus) (UniProt Q2FW31+P0A0H0+Q2FW30+Q2FW19+Q2FYU5+Q2G2Q1+Q2FZ45+Q2FW15+Q2G111+Q2FW10+Q2FXY6+Q2FXZ7+Q2FZ25+Q2FW12+Q2FXK6+Q2FW23+Q2G113+P48940+Q2FW20+Q2FW39+Q2FYF9+Q2G0N9+P0A0F4+Q2FW38+Q2FW16+P0A0F8+Q2FW13+Q2FW33+Q2FW22+Q2FZ42+Q2G0P0+Q2FXQ1+Q2FXS8+Q2FW11+Q2FW08+Q2FW17+Q2FXT0+Q2FZ60+Q2FW14+P60430+P0A0G2+Q2FWD8+Q2FZF1+Q2FYU6+Q2FY22+Q2FUQ0+Q2FXQ0+Q2FW29+Q2FW06+Q2FW07+Q2FW18+Q2FW21+P48860+Q2G2T3); experiment: Inhibition of ribosomal peptidyl transferase centre in methicillin-resistant Staphylococcus aureus ATCC43300 assessed as bacterial cell membrane damage at 4XMIC by scanning electron microscopy; type: functional
Staphylococcus aureus [6] = experiment: Antibacterial activity against methicillin-resistant Staphylococcus aureus ATCC43300 assessed as inhibition of bacterial growth measured after 21 days; type: functional; details: ATCC43300, 504 h, time 21 day
[7] = Toxicity against Zebrafish assessed as reduction of survival of embryos measured after 96 hrs; design: species or system Danio rerio; details: in vivo
[8] = Toxicity against zebrafish embryo assessed as teratogenic effect at 128 ug/ml measured after 96 hrs by microscopic analysis; design: species or system Danio rerio; details: in vivo, dose 128 µg/ml
[9] = target: T1, 70S ribosome (Staphylococcus aureus); experiment: Inhibition of ribosomal peptidyl transferase centre in methicillin-resistant Staphylococcus aureus ATCC43300 assessed as inhibition of bacterial cell division at 4XMIC by scanning electron microscopy; type: functional
Staphylococcus aureus [10] = experiment: Antibacterial activity against methicillin-resistant Staphylococcus aureus ATCC43300 assessed as inhibition of bacterial growth measured on day 20; type: functional; details: ATCC43300, 480 h, time 20 day
Staphylococcus aureus [11] = experiment: Antibacterial activity against methicillin-resistant Staphylococcus aureus ATCC43300 assessed as inhibition of bacterial growth measured on day 8; type: functional; details: ATCC43300, 192 h, time 8 day
Staphylococcus aureus [12] = experiment: In vivo antibacterial activity against methicillin-resistant Staphylococcus aureus ATCC43300 infected in Kunming mouse assessed as increase in animal survival rate administered ip at 1 hr post-infection; type: functional; details: ATCC43300, 1 h

Structure (SMILES) | MIC (Staphylococcus aureus [1]) [µg/mL] | MIC [2] [µg/mL] | MIC (Streptococcus pneumoniae) [µg/mL] | MIC (Staphylococcus aureus [3]) [µg/mL] | MIC (Escherichia coli) [µg/mL] | further results
C=C[C@]1(C)C[C@@H](OC(=O)CSc2ccccc2OCC#CC)[C@]2(C)[C@H](C)CC[C@]3(CCC(=O)[C@H]32)[C@@H](C)[C@@H]1O | 0.125 (≈ 0.232 µM) | 0.125 (≈ 0.232 µM) | < 0.031 | 0.125 (≈ 0.232 µM) | > 64 | 
C=C[C@]1(C)C[C@@H](OC(=O)CSc2cccc(OCc3ccc(C)cc3)c2)[C@]2(C)[C@H](C)CC[C@]3(CCC(=O)[C@H]32)[C@@H](C)[C@@H]1O | 16 (≈ 27.1 µM) | 32 (≈ 54.2 µM) | 16 (≈ 27.1 µM) | 16 (≈ 27.1 µM) | > 64 | 
C=C[C@]1(C)C[C@@H](OC(=O)CSc2cccc(OCC(=O)N3CCS(=O)(=O)CC3)c2)[C@]2(C)[C@H](C)CC[C@]3(CCC(=O)[C@H]32)[C@@H](C)[C@@H]1O | < 0.031 | < 0.031 | 0.125 (≈ 0.189 µM) | < 0.031 | > 64 | Activity (HepG2): Toxic; Activity (Staphylococcus aureus [4]): 99.99%; Activity (HEK293): Toxic; inhibition [5]: Active; MIC (Staphylococcus aureus [6]): 4 µg/mL (≈ 6.04 µM); LC50 at 96 h [7]: 149 µg/mL (≈ 225 µM); Activity [8]: Non-toxic; inhibition [9]: Active
C=C[C@]1(C)C[C@@H](OC(=O)CSc2ccccc2OCc2ccc(C)cc2)[C@]2(C)[C@H](C)CC[C@]3(CCC(=O)[C@H]32)[C@@H](C)[C@@H]1O | 16 (≈ 27.1 µM) | 32 (≈ 54.2 µM) | 16 (≈ 27.1 µM) | 32 (≈ 54.2 µM) | > 64 | 
C=C[C@]1(C)C[C@@H](OC(=O)CSc2ccc(OCC(=O)N3CCS(=O)(=O)CC3)cc2)[C@]2(C)[C@H](C)CC[C@]3(CCC(=O)[C@H]32)[C@@H](C)[C@@H]1O | < 0.031 | < 0.031 | 0.25 (≈ 0.378 µM) | < 0.031 | > 64 | 
C=C[C@]1(C)C[C@@H](OC(=O)CSc2ccc(OCCCC)cc2)[C@]2(C)[C@H](C)CC[C@]3(CCC(=O)[C@H]32)[C@@H](C)[C@@H]1O | 2 (≈ 3.68 µM) | 0.5 (≈ 0.921 µM) | 0.5 (≈ 0.921 µM) | 1 (≈ 1.84 µM) | > 64 | 
C=C[C@]1(C)C[C@@H](OC(=O)CSc2cccc(OCC#CC)c2)[C@]2(C)[C@H](C)CC[C@]3(CCC(=O)[C@H]32)[C@@H](C)[C@@H]1O | 0.125 (≈ 0.232 µM) | 0.125 (≈ 0.232 µM) | < 0.031 | 0.125 (≈ 0.232 µM) | > 64 | 
C=CCCOc1ccc(SCC(=O)O[C@@H]2C[C@@](C)(C=C)[C@@H](O)[C@H](C)[C@]34CCC(=O)[C@H]3[C@@]2(C)[C@H](C)CC4)cc1 | 0.25 (≈ 0.462 µM) | 0.125 (≈ 0.231 µM) | 0.125 (≈ 0.231 µM) | 0.25 (≈ 0.462 µM) | > 64 | 
C=C[C@]1(C)C[C@@H](OC(=O)CSc2ccccc2OCc2ccc(-c3ccccc3C#N)cc2)[C@]2(C)[C@H](C)CC[C@]3(CCC(=O)[C@H]32)[C@@H](C)[C@@H]1O | 2 (≈ 2.95 µM) | 4 (≈ 5.9 µM) | 2 (≈ 2.95 µM) | 2 (≈ 2.95 µM) | > 64 | 
C=C[C@]1(C)C[C@@H](OC(=O)CSc2ccc(O)cc2)[C@]2(C)[C@H](C)CC[C@]3(CCC(=O)[C@H]32)[C@@H](C)[C@@H]1O | 0.062 (≈ 0.127 µM) | 0.062 (≈ 0.127 µM) | 0.125 (≈ 0.257 µM) | 0.062 (≈ 0.127 µM) | > 64 | 
C=CCCOc1cccc(SCC(=O)O[C@@H]2C[C@@](C)(C=C)[C@@H](O)[C@H](C)[C@]34CCC(=O)[C@H]3[C@@]2(C)[C@H](C)CC4)c1 | 0.5 (≈ 0.925 µM) | 0.25 (≈ 0.462 µM) | 0.5 (≈ 0.925 µM) | 0.5 (≈ 0.925 µM) | > 64 | 
C=C[C@]1(C)C[C@@H](OC(=O)CSc2cccc(OCc3ccc(-c4ccccc4C#N)cc3)c2)[C@]2(C)[C@H](C)CC[C@]3(CCC(=O)[C@H]32)[C@@H](C)[C@@H]1O | 4 (≈ 5.9 µM) | 8 (≈ 11.8 µM) | 2 (≈ 2.95 µM) | 2 (≈ 2.95 µM) | > 64 | 
C=C[C@]1(C)C[C@@H](OC(=O)CSc2ccc(OCc3ccc(-c4ccccc4C#N)cc3)cc2)[C@]2(C)[C@H](C)CC[C@]3(CCC(=O)[C@H]32)[C@@H](C)[C@@H]1O | 4 (≈ 5.9 µM) | 4 (≈ 5.9 µM) | 2 (≈ 2.95 µM) | 2 (≈ 2.95 µM) | > 64 | 
C=C[C@]1(C)C[C@@H](OC(=O)CSCCN(CC)CC)[C@]2(C)[C@H](C)CC[C@]3(CCC(=O)[C@H]32)[C@@H](C)[C@@H]1O [TIAMULIN] | 0.5 (≈ 1.01 µM) | 0.25 (≈ 0.506 µM) | 0.5 (≈ 1.01 µM) | 0.5 (≈ 1.01 µM) | > 64 | MIC (Staphylococcus aureus [10]): 32 µg/mL (≈ 64.8 µM); Activity (HepG2): Toxic; Activity (HEK293): Toxic; MIC (Staphylococcus aureus [11]): 8 µg/mL (≈ 16.2 µM); LC50 at 96 h [7]: 24 µg/mL (≈ 48.6 µM); ED50 (Staphylococcus aureus [12]): 11.4 mg/kg
C=C[C@]1(C)C[C@@H](OC(=O)CSc2ccc(OCc3ccc(C(=O)OC(C)(C)C)cc3)cc2)[C@]2(C)[C@H](C)CC[C@]3(CCC(=O)[C@H]32)[C@@H](C)[C@@H]1O | 4 (≈ 5.91 µM) | 8 (≈ 11.8 µM) | 8 (≈ 11.8 µM) | 32 (≈ 47.3 µM) | > 64 | 
C=C[C@]1(C)C[C@@H](OC(=O)CSc2ccc(OCC#CC)cc2)[C@]2(C)[C@H](C)CC[C@]3(CCC(=O)[C@H]32)[C@@H](C)[C@@H]1O | 0.25 (≈ 0.464 µM) | 0.125 (≈ 0.232 µM) | 0.062 (≈ 0.115 µM) | 0.25 (≈ 0.464 µM) | > 64 | 
C=C[C@]1(C)C[C@@H](OC(=O)CSc2cccc(O)c2)[C@]2(C)[C@H](C)CC[C@]3(CCC(=O)[C@H]32)[C@@H](C)[C@@H]1O | 0.125 (≈ 0.257 µM) | 0.125 (≈ 0.257 µM) | 0.125 (≈ 0.257 µM) | 0.062 (≈ 0.127 µM) | > 64 | 
C=C[C@]1(C)C[C@@H](OC(=O)CSc2ccccc2OCc2ccc(C(=O)OC(C)(C)C)cc2)[C@]2(C)[C@H](C)CC[C@]3(CCC(=O)[C@H]32)[C@@H](C)[C@@H]1O | 16 (≈ 23.6 µM) | 16 (≈ 23.6 µM) | 16 (≈ 23.6 µM) | 32 (≈ 47.3 µM) | > 64 | 
C=C[C@]1(C)C[C@@H](OC(=O)CSc2ccc(OCc3ccc(C)cc3)cc2)[C@]2(C)[C@H](C)CC[C@]3(CCC(=O)[C@H]32)[C@@H](C)[C@@H]1O | 16 (≈ 27.1 µM) | 16 (≈ 27.1 µM) | 16 (≈ 27.1 µM) | 16 (≈ 27.1 µM) | > 64 | 
C=C[C@]1(C)C[C@@H](OC(=O)CSc2ccccc2OCCCC)[C@]2(C)[C@H](C)CC[C@]3(CCC(=O)[C@H]32)[C@@H](C)[C@@H]1O | 0.5 (≈ 0.921 µM) | 0.25 (≈ 0.461 µM) | 0.5 (≈ 0.921 µM) | 0.5 (≈ 0.921 µM) | > 64 | 
C=CCCOc1ccccc1SCC(=O)O[C@@H]1C[C@@](C)(C=C)[C@@H](O)[C@H](C)[C@]23CCC(=O)[C@H]2[C@@]1(C)[C@H](C)CC3 | < 0.031 | 0.031 (≈ 0.0573 µM) | < 0.031 | 0.125 (≈ 0.231 µM) | > 64 | 
C=C[C@]1(C)C[C@@H](OC(=O)CSc2ccccc2O)[C@]2(C)[C@H](C)CC[C@]3(CCC(=O)[C@H]32)[C@@H](C)[C@@H]1O | 0.125 (≈ 0.257 µM) | 0.125 (≈ 0.257 µM) | 0.125 (≈ 0.257 µM) | 0.125 (≈ 0.257 µM) | > 64 | 
C=C[C@]1(C)C[C@@H](OC(=O)CSc2cccc(OCCCC)c2)[C@]2(C)[C@H](C)CC[C@]3(CCC(=O)[C@H]32)[C@@H](C)[C@@H]1O | 2 (≈ 3.68 µM) | 1 (≈ 1.84 µM) | 2 (≈ 3.68 µM) | 2 (≈ 3.68 µM) | > 64 | 
C=C[C@]1(C)C[C@@H](OC(=O)CSc2cccc(OCc3ccc(C(=O)OC(C)(C)C)cc3)c2)[C@]2(C)[C@H](C)CC[C@]3(CCC(=O)[C@H]32)[C@@H](C)[C@@H]1O | 4 (≈ 5.91 µM) | 8 (≈ 11.8 µM) | 8 (≈ 11.8 µM) | 32 (≈ 47.3 µM) | > 64 | 
